Assay results as given in article PMC6979384, “Characterization of the plant homeodomain (PHD) reader family for their histone tail interactions” (Epigenetics & Chromatin, 2020).

Legend:
Assay in all cases: Histone peptide microarray
Format in all cases: binding, human
[1] = test system: ING1; conditions: GST-tagged ING1; sheet Array Heatmap; each array performed twice, total n = 4
Method in brief: (§1)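 Purified PHD finger domains fused to GST are screened against 293 synthetic histone peptides bearing one or several post-translational modifications. The protein is used at 0.5 μM, and the signal from four replicate arrays is averaged, with standard deviation given.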

[2] = test system: PHF2; conditions: GST-tagged PHF2; sheet Array Heatmap; each array performed twice, total n = 4
Method in brief: as §1

[3] = test system: CHD4 (PPCC); conditions: GST-tagged CHD4 (PPCC = Dual PHD + Dual Chromodomain); sheet Array Heatmap; each array performed twice, total n = 4
Method in brief: as §1

[4] = test system: TAF3; conditions: GST-tagged TAF3; sheet Array Heatmap; each array performed twice, total n = 4
Method in brief: as §1

[5] = test system: KDM5A (3); conditions: GST-tagged KDM5A (3); sheet Array Heatmap; each array performed twice, total n = 4
Method in brief: as §1

[6] = test system: CHD5 (PCC); conditions: GST-tagged CHD5 (PCC = PHD + Dual Chromodomain); sheet Array Heatmap; each array performed twice, total n = 4
Method in brief: as §1

[7] = test system: BAZ2B; conditions: GST-tagged BAZ2B; sheet Array Heatmap; each array performed twice, total n = 4
Method in brief: as §1

[8] = test system: AIRE (PP); conditions: GST-tagged AIRE (PP); sheet Array Heatmap; each array performed twice, total n = 4
Method in brief: as §1

[9] = test system: PHF23; conditions: GST-tagged PHF23; sheet Array Heatmap; each array performed twice, total n = 4
Method in brief: as §1

[10] = test system: MLL5; conditions: GST-tagged MLL5; sheet Array Heatmap; each array performed twice, total n = 4
Method in brief: as §1

[11] = test system: PHF13; conditions: GST-tagged PHF13; sheet Array Heatmap; each array performed twice, total n = 4
Method in brief: as §1

[12] = test system: ING5; conditions: GST-tagged ING5; sheet Array Heatmap; each array performed twice, total n = 4
Method in brief: as §1

[13] = test system: KDM4C (TTP); conditions: GST-tagged KDM4C (TTP = Tandem Tudor domain + PHD); sheet Array Heatmap; each array performed twice, total n = 4
Method in brief: as §1

[14] = test system: KDM5B (1); conditions: GST-tagged KDM5B (1); sheet Array Heatmap; each array performed twice, total n = 4
Method in brief: as §1

[15] = test system: KDM5A (1); conditions: GST-tagged KDM5A (1); sheet Array Heatmap; each array performed twice, total n = 4
Method in brief: as §1

[16] = test system: PHF8; conditions: GST-tagged PHF8; sheet Array Heatmap; each array performed twice, total n = 4
Method in brief: as §1

[17] = test system: PHRF1 (RP); conditions: GST-tagged PHRF1 (RP); sheet Array Heatmap; each array performed twice, total n = 4
Method in brief: as §1

[18] = test system: PHF21A; conditions: GST-tagged PHF21A; sheet Array Heatmap; each array performed twice, total n = 4
Method in brief: as §1

[19] = test system: RAG2; conditions: GST-tagged RAG2; sheet Array Heatmap; each array performed twice, total n = 4
Method in brief: as §1

[20] = test system: ING3; conditions: GST-tagged ING3; sheet Array Heatmap; each array performed twice, total n = 4
Method in brief: as §1

[21] = test system: ING4; conditions: GST-tagged ING4; sheet Array Heatmap; each array performed twice, total n = 4
Method in brief: as §1

[22] = test system: BPTF (PB); conditions: GST-tagged BPTF (PB = PHD + Bromodomain); sheet Array Heatmap; each array performed twice, total n = 4
Method in brief: as §1

[23] = test system: KDM5B (3); conditions: GST-tagged KDM5B (3); sheet Array Heatmap; each array performed twice, total n = 4
Method in brief: as §1

[24] = test system: SP140L; conditions: GST-tagged SP140L; sheet Array Heatmap; each array performed twice, total n = 4
Method in brief: as §1

[25] = test system: MORC3 (CW); conditions: GST-tagged MORC3 (CW = CW-type Zn-finger); sheet Array Heatmap; each array performed twice, total n = 4
Method in brief: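 GST-PHD reader, 0.5 μM, probed on 293-peptide histone array (single/combinatorial PTMs); optimized array protocol; signal = mean ± SD, n = 4.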

[26] = test system: DPF2 (PPC2W2); conditions: GST-tagged DPF2 (PPC2W2 = Dual PHD + C2W2-type Zn-finger); sheet Array Heatmap; each array performed twice, total n = 4
Method in brief: as §1

[27] = test system: KDM7A; conditions: GST-tagged KDM7A; sheet Array Heatmap; each array performed twice, total n = 4
Method in brief: as §1

[28] = test system: TRIM66 (PB); conditions: GST-tagged TRIM66 (PB = PHD + Bromodomain); sheet Array Heatmap; each array performed twice, total n = 4
Method in brief: as §1

[29] = test system: CHD5 (PPCC); conditions: GST-tagged CHD5 (PPCC = Dual PHD + Dual Chromodomain); sheet Array Heatmap; each array performed twice, total n = 4
Method in brief: as §1

[30] = test system: DIDO1; conditions: GST-tagged DIDO1; sheet Array Heatmap; each array performed twice, total n = 4
Method in brief: as §1

[31] = test system: ING2; conditions: GST-tagged ING2; sheet Array Heatmap; each array performed twice, total n = 4
Method in brief: as §1

H3K4me2 + K9ac + K18ac: H3 1-20
Array Heatmap signal (histone peptide microarray) [1]: 0.6509 | Array Heatmap signal (histone peptide microarray) [2]: 0.8135 | Array Heatmap signal (histone peptide microarray) [3]: 0.5347 | Array Heatmap signal (histone peptide microarray) [4]: 0.4004 | Array Heatmap signal (histone peptide microarray) [5]: 0.7199 | Array Heatmap signal (histone peptide microarray) [6]: 0.7098 | Array Heatmap signal (histone peptide microarray) [7]: 0.4481 | Array Heatmap signal (histone peptide microarray) [8]: 0.3953 | Array Heatmap signal (histone peptide microarray) [9]: 0.6826 | Array Heatmap signal (histone peptide microarray) [10]: 0.5921 | Array Heatmap signal (histone peptide microarray) [11]: 0.5893 | Array Heatmap signal (histone peptide microarray) [12]: 0.3511 | Array Heatmap signal (histone peptide microarray) [13]: 0.4492 | Array Heatmap signal (histone peptide microarray) [14]: 0.595 | Array Heatmap signal (histone peptide microarray) [15]: 0.4202 | Array Heatmap signal (histone peptide microarray) [16]: 0.4748 | Array Heatmap signal (histone peptide microarray) [17]: 0.5931 | Array Heatmap signal (histone peptide microarray) [18]: 0.4382 | Array Heatmap signal (histone peptide microarray) [19]: 0.3927 | Array Heatmap signal (histone peptide microarray) [20]: 0.5192 | Array Heatmap signal (histone peptide microarray) [21]: 0.4671 | Array Heatmap signal (histone peptide microarray) [22]: 0.3833 | Array Heatmap signal (histone peptide microarray) [23]: 0.5774 | Array Heatmap signal (histone peptide microarray) [24]: 0.3079 | Array Heatmap signal (histone peptide microarray) [25]: 0.6581 | Array Heatmap signal (histone peptide microarray) [26]: 0.6346 | Array Heatmap signal (histone peptide microarray) [27]: 0.3188 | Array Heatmap signal (histone peptide microarray) [28]: 0.6398 | Array Heatmap signal (histone peptide microarray) [29]: 0.5253 | Array Heatmap signal (histone peptide microarray) [30]: 0.8235 | Array Heatmap signal (histone peptide microarray) [31]: 0.7129
